Reference: PubChem BioAssay (NCI)
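Cultured in 96-well plates, cells were exposed to test compound for 48 hours across five concentrations. GI50 marks 50% less growth. Definition used: TGI = concentration required for complete inhibition of growth.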

What was measured:
Assay in all cases: NCI-60 cell line screen, 48 h
[1] = tested on: MALME-3M melanoma
[2] = tested on: SK-MEL-2 melanoma
[3] = tested on: OVCAR-5 ovarian
[4] = tested on: UO-31 renal
[5] = tested on: NCI-H23 lung
[6] = tested on: SW-620 colon
[7] = tested on: OVCAR-4 ovarian
[8] = tested on: RPMI-8226 leukemia
[9] = tested on: SNB-75 CNS
[10] = tested on: MDA-MB-435

| Structure (SMILES) | TGI [1] [µM] | TGI [2] | TGI [3] | TGI [4] | TGI [5] | TGI [6] | TGI [7] [µM] | TGI [8] | TGI [9] | GI50 [2] | GI50 [3] | GI50 [4] | GI50 [6] | GI50 [10] | TGI [10] | GI50 [7] [µM] | GI50 [8] | GI50 [9] | GI50 [1] [nM] | GI50 [5] |
| --- | --- | --- | --- | --- | --- | --- | --- | --- | --- | --- | --- | --- | --- | --- | --- | --- | --- | --- | --- | --- |
| CC#CC1C2CCCC1(CSc1ccccc1)NC(=O)O2 (stereo not drawn) | > 100 | > 100 µM | > 100 µM | > 100 µM | > 100 µM | > 100 µM | > 100 | > 100 µM | > 100 µM | – | – | – | – | – | – | – | – | – | – | – |
| c1ccc2c(c1)N=C(c1cccc3ccccc13)CC(c1ccc3c(c1)OCO3)S2 (stereo not drawn) | > 100 | > 100 µM | > 100 µM | > 100 µM | > 100 µM | > 100 µM | > 100 | – | > 100 µM | – | – | – | – | – | – | – | – | – | – | – |
| COc1cc(-c2c(C#N)c(N)nc(N3CCOCC3)c2C#N)cc(OC)c1OC | – | > 100 µM | > 100 µM | > 100 µM | – | > 100 µM | > 100 | > 100 µM | 54.4 µM | > 100000 nM | 27.2 µM | 96.1 µM | > 100000 nM | > 100000 nM | > 100 µM | > 100 | > 100000 nM | 1640 nM | – | – |
| CCNC(=O)O/N=C1\CCC2[C@@H]3CC=C4C[C@@H](OC5CCCCO5)CC[C@]4(C)C3CC[C@]12C (stereo partly drawn) | – | 5.68 µM | 13 µM | 2.85 µM | 11.1 µM | 6.04 µM | – | 4.8 µM | – | – | – | – | – | – | – | – | – | – | – | – |
| CC(C)(C)CC(N)=O | – | > 100 µM | > 100 µM | > 100 µM | > 100 µM | > 100 µM | > 100 | – | > 100 µM | – | – | – | – | – | > 100 µM | – | – | – | – | – |
| C=C(C(=C)P(=S)(c1ccccc1)c1ccccc1)P(=S)(c1ccccc1)c1ccccc1 | > 100 | > 100 µM | > 100 µM | – | > 100 µM | > 100 µM | > 100 | > 100 µM | > 100 µM | – | – | – | – | – | – | – | – | – | – | – |
| O=C1CCSC2=C1SCc1sccc12 | > 100 | > 100 µM | > 100 µM | > 100 µM | > 100 µM | > 100 µM | > 100 | > 100 µM | > 100 µM | – | – | – | – | – | – | – | – | – | – | – |
| COc1ccccc1NC(=O)c1nc2ccc([N+](=O)[O-])cc2nc1C | > 100 | > 100 µM | > 100 µM | > 100 µM | > 100 µM | > 100 µM | > 100 | > 100 µM | > 100 µM | – | – | – | – | – | – | – | – | – | – | – |
| Clc1ccc(-c2c(C3=NCCCN3)nnn2-c2ccccc2)cc1 | > 100 | > 100 µM | > 100 µM | > 100 µM | > 100 µM | 46.7 µM | > 100 | – | > 100 µM | – | – | – | – | – | – | – | – | – | – | – |
| NC(N)=N/N=C/c1ccc(-c2ccc(-c3cc(Cl)cc(Cl)c3)s2)cc1 | 3.42 | 4.77 µM | 3.02 µM | 2.97 µM | 3.88 µM | 3.34 µM | 3.77 | 4.49 µM | – | 2080 nM | 1.59 µM | 1.5 µM | 1660 nM | 1650 nM | 3.28 µM | 1.9 | 1780 nM | – | 1720 | 1900 nM |
| CC1=CC(N2C(=O)C(C)=CC2O)NC1=O (stereo not drawn) | > 100 | > 100 µM | > 100 µM | > 100 µM | > 100 µM | > 100 µM | > 100 | – | > 100 µM | – | – | – | – | – | – | – | – | – | – | – |
| COC(=O)C1=C(C(=O)OC)C2(C)Nc3ccccc3C2=C(c2ccccc2)C1 (stereo not drawn) | 37.1 | 39 µM | 62.7 µM | 38.2 µM | 45.7 µM | 69.6 µM | 50.1 | 29.6 µM | – | – | – | – | – | – | – | – | – | – | – | – |
| CC(=O)NC1C(OCc2ccccc2)OC(COC(=O)CCCCCCCCCCNc2ccc([N+](=O)[O-])c3[nH]c4ccccc4c(=O)c23)C(O)C1OC(C)C(=O)NC(C)C(=O)NC(CCC(N)=O)C(=O)OCc1ccccc1 (stereo not drawn) | – | > 100 µM | > 100 µM | > 100 µM | > 100 µM | > 100 µM | > 100 | > 100 µM | > 100 µM | – | – | – | – | – | – | – | – | – | – | – |
| NCC1OC(OC2C(CO)OC(OC3C(O)C(N)CC(N)C3OC3OC(CO)C(O)CC3N)C2O)C(N)C(O)C1OC1OC(CO)C(O)C(O)C1O (stereo not drawn) | – | > 50 µg/mL | > 50 µg/mL | > 50 µg/mL | > 50 µg/mL | > 50 µg/mL | – | > 50 µg/mL | > 50 µg/mL | > 50 µg/mL | > 50 µg/mL | > 50 µg/mL | > 50 µg/mL | > 50 µg/mL | > 50 µg/mL | – | > 50 µg/mL | > 50 µg/mL | – | > 50 µg/mL |
| CN1CCN(C)C12C=CC=CC21CC1 | > 100 | > 100 µM | > 100 µM | > 100 µM | > 100 µM | > 100 µM | > 100 | > 100 µM | > 100 µM | – | – | – | – | – | – | – | – | – | – | – |
| COc1cc(-c2cc(-c3cc(OC)c(OC)c(OC)c3)nc3nc(N)[nH]c(=O)c23)ccc1Oc1ccnc2cc(Cl)ccc12 | > 100 | 7.68 µM | > 100 µM | > 100 µM | 24.9 µM | > 100 µM | > 100 | 10.2 µM | > 100 µM | 2250 nM | 4.76 µM | 3.45 µM | 1350 nM | – | – | 4.34 | 2520 nM | 1900 nM | 3500 | 3430 nM |
| COc1cc([C@@H]2C[C@H]2c2cc(SC)n[nH]2)cc(OC)c1OC | – | 67.2 µM | 90.1 µM | > 100 µM | 58 µM | > 100 µM | > 100 | 37.2 µM | > 100 µM | 25600 nM | 37.9 µM | 23 µM | 26900 nM | 11200 nM | 26.5 µM | 26.2 | 12600 nM | 26400 nM | – | 21100 nM |
| c1ccc2cc(C[n+]3ccn(CCCCCCCCCCn4cc[n+](Cc5ccc6ccccc6c5)c4)c3)ccc2c1 | 1.48 | 5.2 µM | 9.48 µM | > 100 µM | 3.35 µM | 11.2 µM | 9.88 | 4.17 µM | – | 1720 nM | 1.87 µM | 6.14 µM | 1570 nM | 819 nM | 5.43 µM | 0.988 | 737 nM | – | 313 | 445 nM |
| O=C(COC(=O)c1cccc2c(=O)c3ccccc3[nH]c12)Nc1ccc(C(=O)O)cc1 | > 100 | – | – | > 100 µM | > 100 µM | > 100 µM | > 100 | – | > 100 µM | – | – | – | – | – | – | – | – | – | – | – |
